# Results reported in patent US8481738B2, “Gonadotropin-releasing hormone receptor antagonists and methods relating thereto” (Neurocrine Biosciences, Inc., priority 2007, dated 2013).
# Target: T1, human GnRH receptor (Homo sapiens, UniProt P30968)
# T1 construct: expressed in transfected cells; host or cells: RBL cells, stably transfected (in general)
# T1 sequence (P30968 1-328): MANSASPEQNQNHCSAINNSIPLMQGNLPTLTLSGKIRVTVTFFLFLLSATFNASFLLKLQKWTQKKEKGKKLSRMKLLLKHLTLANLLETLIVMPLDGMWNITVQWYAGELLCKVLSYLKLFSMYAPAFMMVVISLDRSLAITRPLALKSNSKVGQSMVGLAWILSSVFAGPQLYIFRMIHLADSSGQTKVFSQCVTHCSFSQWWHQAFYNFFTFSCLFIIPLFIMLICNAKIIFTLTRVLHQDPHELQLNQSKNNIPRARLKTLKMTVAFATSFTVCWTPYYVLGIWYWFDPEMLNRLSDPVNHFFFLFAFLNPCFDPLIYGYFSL
# Assay: Peptide competition radioligand binding displacement assay, human GnRH receptor membranes
# Settings: one or more of the peptide competition human receptor binding assays
# Outline: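 Membranes for radioligand binding were prepared from RBL cells stably expressing human GnRH receptor, which were lysed by nitrogen cavitation at 900 psi, 4° C. Membranes from HEK293 cells stably transfected with human receptor were held in 10 mM HEPES pH 7.5, 150 mM NaCl, 0.1% BSA. Transiently transfected COS-7 cells were used for other species.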
row,SMILES,Ki [µM]
1,COC(=O)CCCOc1c(F)cccc1N(C)C(=O)c1ccc(Cl)c(-c2cnc(C(F)(F)F)cc2C#N)c1 [3-12],≤ 0.1
2,Cc1cc(Cl)ncc1-c1cc(C(=O)N(C)c2ccccc2F)ccc1Cl [2-36],≤ 0.1
3,COc1c(Cl)cccc1N(C)C(=O)c1ccc(Cl)c(-c2ncc(C)cc2C)c1 [2-70],≤ 0.1
4,Cc1cc(C(F)(F)F)ncc1-c1cc(C(=O)N(C)c2ccccc2OCCCC(=O)O)ccc1Cl [4-6],≤ 0.1
5,"COc1ccccc1N(C)C(=O)c1ccc(Cl)c(-c2ncc(Cl)cc2Cl)c1 [19-2, 4-chloro-3-(3,5-dichloro-pyridin-2-yl)-N-(2-methoxy-phenyl)-N-methyl-benzamide]",≤ 0.1
6,COc1ccccc1N(C)C(=O)c1ccc(Cl)c(-c2ccc(C(F)(F)F)cc2C#N)c1 [2-53],≤ 0.1
7,Cc1cc(Cl)cnc1-c1cc(C(=O)N(C)c2c(C)cccc2C)ccc1Cl [2-63],≤ 0.1
8,Cc1cc(Br)ncc1-c1cc(C(=O)N(C)c2ccccc2F)ccc1Cl [2-39],≤ 0.1
9,COc1cc(C)c(-c2cc(C(=O)N(C)c3cccc(Cl)c3OC)ccc2Cl)cn1 [2-45],≤ 0.1
10,"Cc1cc(Cl)ncc1-c1cc(C(=O)N(C)c2ccccc2OCC(N)=O)ccc1Cl [6-1, N-(2-Carbamoylmethoxy-phenyl)-4-chloro-3-(6-chloro-4-methyl-pyridin-3-yl)-N-methyl-benzamide]",≤ 0.1
11,COC(=O)c1ccccc1N(C)C(=O)c1ccc(Cl)c(-c2ncc(C(F)(F)F)cc2Cl)c1 [2-75],≤ 0.1
12,COc1c(Cl)cccc1N(C)C(=O)c1ccc(Cl)c(-c2ncc(Cl)cc2Cl)c1 [19-7],≤ 0.1
13,COC(=O)COc1ccccc1N(C)C(=O)c1ccc(Cl)c(-c2cnc(C)cc2Cl)c1 [3-4],≤ 0.1
14,COC(=O)COc1ccccc1N(C)C(=O)c1ccc(Cl)c(-c2cnc(C#N)cc2C)c1 [3-3],≤ 0.1
15,COC(=O)CCCOc1cccc(C)c1N(C)C(=O)c1ccc(Cl)c(-c2cnc(C#N)cc2C)c1 [3-9],≤ 0.1
16,COc1ccccc1N(C)C(=O)c1ccc(Cl)c(-c2ccc(Cl)cc2C#N)c1 [2-55],≤ 0.1
17,COC(=O)c1ccccc1N(C)C(=O)c1ccc(Cl)c(-c2ncc(Cl)cc2Cl)c1 [19-6],≤ 0.1
18,Cc1cc(C(F)(F)F)ncc1-c1cc(C(=O)N(C)c2ccccc2CCCC(=O)O)ccc1Cl [14-2],≤ 0.1
19,COc1c(Cl)cccc1N(C)C(=O)c1ccc(Cl)c(-c2cnc(Cl)cc2C)c1 [2-42],≤ 0.1
20,CN(C(=O)c1ccc(Cl)c(-c2ncc(Cl)cc2Cl)c1)c1cccc(F)c1 [19-3],≤ 0.1
21,"COc1cccc(C)c1N(C)C(=O)c1ccc(Cl)c(-c2cnc(Cl)cc2C)c1 [2-31, 4-chloro-3-(6-chloro-4-methyl-pyridin-3-yl)-N-(2-methoxy-6-methyl-phenyl)-N-methyl-benzamide]",≤ 0.1
22,COc1cccc(C)c1N(C)C(=O)c1ccc(Cl)c(-c2ncc(Cl)cc2Cl)c1 [2-69],≤ 0.1
23,"COc1ccccc1N(C)C(=O)c1ccc(Cl)c(-c2ccc(C#N)nc2)c1 [2-2, 4-chloro-3-(6-cyano-pyridin-3-yl)-N-(2-methoxy-phenyl)-N-methyl-benzamide]",≤ 0.1
24,Cc1cc(Cl)c(-c2cc(C(=O)N(C)c3cccc(C(F)(F)F)c3C)ccc2Cl)cn1 [2-24],≤ 0.1
25,Cc1cc(C(F)(F)F)ncc1-c1cc(C(=O)N(C)c2cccc(F)c2OCCCC(=O)O)ccc1Cl [4-7],≤ 0.1
26,COc1cccc(C)c1N(C)C(=O)c1ccc(Cl)c(-c2cnc(C#N)cc2C)c1 [2-34],≤ 0.1
27,COC(=O)CCCc1ccccc1N(C)C(=O)c1ccc(Cl)c(-c2cnc(C(F)(F)F)cc2C#N)c1 [13-3],≤ 0.1

# Other lines, results leading:
row,Ki [µM],SMILES
1,≤ 0.1,"COc1ccccc1N(C)C(=O)c1cc(-c2cnc(C(F)(F)F)cc2C#N)c(Cl)cc1OCCCN1CCC[C@H]1C(=O)O [49-1, (S)-1-(3-{5-Chloro-4-(4-cyano-6-trifluoromethyl-pyridin-3-yl)-2-[(2-methoxy-phenyl)-methyl-carbamoyl]-phenoxy}-propyl)-pyrrolidine-2-carboxylic acid]"
2,≤ 0.1,CC(C)CCN(C)C(=O)c1cc(-c2cnc(C(F)(F)F)cc2C#N)c(Cl)cc1OCCCC(=O)O [34-23]
3,≤ 0.1,COc1cccc(F)c1N(C)C(=O)c1cc(-c2cnc(C(F)(F)F)cc2C#N)c(Cl)cc1OCCCC(=O)O [34-26]
4,≤ 0.1,Cc1cc(C(F)(F)F)nc(=O)n1-c1cc(C(=O)N(C)c2cccc(F)c2)ccc1Cl [30-17]
5,≤ 0.1,"CN(C(=O)c1ccc(Cl)c(-c2cnc(C(F)(F)F)cc2C#N)c1)c1ccccc1OCCCc1nnn[nH]1 [28-1, 4-Chloro-3-(4-cyano-6-trifluoromethyl-pyridin-3-yl)-N-methyl-N-{2-[3-(1H-tetrazol-5-yl)-propoxy]-phenyl}-benzamide]"
6,≤ 0.1,Cc1cccc(C)c1N(C)C(=O)c1cc(-c2cnc(C(F)(F)F)cc2C#N)c(Cl)cc1OCCCC(=O)O [22-4]
7,≤ 0.1,COc1ccccc1N(C)C(=O)c1cc(-c2cnc(C(F)(F)F)cc2C#N)c(Cl)cc1OCCCn1ccnc1 [42-11]
8,≤ 0.1,Cc1cc(C(F)(F)F)nc(=O)n1-c1cc(C(=O)N(C)c2cc(F)ccc2Cl)ccc1Cl [30-9]
9,≤ 0.1,COc1ccc(C)cc1N(C)C(=O)c1cc(-c2cnc(C(F)(F)F)cc2C#N)c(Cl)cc1OCCCC(=O)O [34-12]
10,≤ 0.1,Cc1cccc(C)c1N(C)C(=O)c1cc(-c2nc3ccccc3cc2C#N)c(Cl)cc1OCCCCO [21-6]
11,≤ 0.1,"CN(C(=O)c1ccc(Cl)c(-c2cnc(C(F)(F)F)cc2C#N)c1)c1ccccc1OCCc1n[nH]c(=O)[nH]1 [40-1, 4-Chloro-3-(4-cyano-6-trifluoromethyl-pyridin-3-yl)-N-methyl-N-{2-[2-(5-oxo-4,5-dihydro-1H-[1,2,4]triazol-3-yl)-ethoxy]-phenyl}-benzamide]"
12,≤ 0.1,Cc1c(F)cccc1N(C)C(=O)c1ccc(Cl)c(-n2c(C)cc(C(F)(F)F)nc2=O)c1 [30-7]
13,≤ 0.1,"CN(C(=O)c1ccc(Cl)c(-c2cnc(C(F)(F)F)cc2C#N)c1)c1ccccc1OCCc1n[nH]c(=O)o1 [31-1, 4-Chloro-3-(4-cyano-6-trifluoromethyl-pyridin-3-yl)-N-methyl-N-{2-[2-(5-oxo-4,5-dihydro-[1,3,4]oxadiazol-2-yl)ethoxy]-phenyl}-benzamide]"
14,≤ 0.1,COc1cc(Cl)c(-c2cnc(C(F)(F)F)cc2C#N)cc1C(=O)N(C)c1ccccc1 [39-7]
15,≤ 0.1,COc1cccc(C)c1N(C)C(=O)c1cc(-c2cnc(C(F)(F)F)cc2C#N)c(Cl)cc1OCCO [21-7]
16,≤ 0.1,"COc1cccc(C)c1N(C)C(=O)c1ccc(Cl)c(-c2cnc(SC)cc2C)c1 [26-1, 4-Chloro-N-(2-methoxy-6-methyl-phenyl)-N-methyl-3-(4-methyl-6-methyl-sulfanylpyridin-3-yl)-benzamide]"

row,Ki [µM],SMILES
1,≤ 0.1,"COc1ccccc1N(C)C(=O)c1cc(-c2cnc(C(F)(F)F)cc2C#N)c(Cl)cc1OCCN(C)S(C)(=O)=O [48-2, 4-Chloro-5-(4-cyano-6-trifluoromethyl-pyridin-3-yl)-2-[2-(methanesulfonyl-methyl-amino)-ethoxy]-N-(2-methoxy-phenyl)-N-methyl-benzamide]"
2,≤ 0.1,"COc1ccccc1N(C)C(=O)c1cc(-c2cnc(C(F)(F)F)cc2C#N)c(Cl)cc1OCCCC(=O)OC(C)OC(=O)OC(C)C (stereo not shown) [37-4, 4-{5-chloro-4-(4-cyano-6-trifluoromethyl-pyridin-3-yl)-2-[(2-methoxy-phenyl)-methyl-carbamoyl]-phenoxy}-butyric acid 1-isopropoxycarbonyloxy-ethyl ester]"
3,≤ 0.1,CN(C(=O)c1cc(-c2cnc(C(F)(F)F)cc2C#N)c(Cl)cc1OCCCC(=O)O)c1ccccc1-c1cnco1 [34-15]
4,≤ 0.1,COc1ccccc1N(C)C(=O)c1cc(-c2cnc(C(F)(F)F)cc2C#N)c(Cl)cc1OCCCOc1ccccn1 [42-15]
5,≤ 0.1,"COc1ccccc1N(C)C(=O)c1cc(-c2cnc(C(F)(F)F)cc2C#N)c(Cl)cc1OCCCC(=O)O [34-1, 4-{5-chloro-4-(4-cyano-6-trifluoromethyl-pyridin-3-yl)-2-[(2-methoxy-phenyl)-methyl-carbamoyl]-phenoxy}-butyric acid]"
6,≤ 0.1,COc1ccccc1CCOc1cc(Cl)c(-c2cnc(C(F)(F)F)cc2C#N)cc1C(=O)N(C)c1ccccc1OC [46-2]
7,≤ 0.1,COc1ccccc1N(C)C(=O)c1cc(-c2cnc(C(F)(F)F)cc2C#N)c(Cl)cc1OCC(N)CO (stereo not shown) [42-18]
8,≤ 0.1,COc1cccc(C)c1N(C)C(=O)c1cc(-c2cnc(C(F)(F)F)cc2C#N)c(Cl)cc1OCCCO [21-8]
9,≤ 0.1,COC(=O)c1ccccc1N(C)C(=O)c1cc(-c2cnc(C(F)(F)F)cc2C#N)c(Cl)cc1OCCCC(=O)O [34-10]
10,≤ 0.1,COc1ccccc1N(C)C(=O)c1cc(-c2cnc(C(F)(F)F)cc2C#N)c(Cl)cc1OCCCN1C(=O)c2ccccc2C1=O [46-4]
11,≤ 0.1,COc1cc(Cl)c(-c2cnc(C(F)(F)F)cc2C#N)cc1C(=O)N(C)c1c(F)cccc1F [39-6]
12,≤ 0.1,COCc1ccccc1N(C)C(=O)c1cc(-c2cnc(C(F)(F)F)cc2C#N)c(Cl)cc1OCCCC(=O)O [34-5]
13,≤ 0.1,COc1cc(F)ccc1N(C)C(=O)c1cc(-c2cnc(C(F)(F)F)cc2C#N)c(Cl)cc1OCCCC(=O)O [34-4]
14,≤ 0.1,COc1ccccc1N(C)C(=O)c1cc(-c2cnc(C(F)(F)F)cc2C#N)c(Cl)cc1OCCCNC(C)=O [47-3]
15,≤ 0.1,COc1cc(Cl)c(-c2cnc(C(F)(F)F)cc2C#N)cc1C(=O)N(C)c1cnccc1OC [39-20]
